Reference: the NIST ThermoML archive (doi:10.1016/j.fluid.2018.08.012)
“And” between values parts separate entries of the source, which are not always exact repeats. Equal entries are not always repeated. ± gives the expanded uncertainty stated by the source.

Assay: mn = molality of the nth substance listed, in mol/kg
Settings: Fluid (supercritical or subcritical phases), Vibrating tube method, m1 = 0.2322

Compound: S=C=S [carbon disulfide] + O=C=O
- mass density (349.43 K, 32815 kPa): 790.19 ± 0.9 kg/m3
- mass density (349.43 K, 35294 kPa): 808.86 ± 0.94 kg/m3
- mass density (349.43 K, 35296 kPa): 810.28 ± 0.96 kg/m3
- mass density (374.78 K, 5066.1 kPa): 82.47 ± 0.14 kg/m3
- mass density (374.78 K, 5070.7 kPa): 82.42 ± 0.14 kg/m3
- mass density (374.78 K, 7581.5 kPa): 133.35 ± 0.24 kg/m3
- mass density (374.78 K, 7585 kPa): 133.32 ± 0.24 kg/m3
- mass density (374.78 K, 10086 kPa): 191.97 ± 0.41 kg/m3
- mass density (374.78 K, 10088 kPa): 191.92 ± 0.41 kg/m3
- mass density (374.78 K, 15040 kPa): 335.44 ± 0.88 kg/m3
- mass density (374.78 K, 15062 kPa): 335.78 ± 0.89 kg/m3
- mass density (374.78 K, 17568 kPa): 413.55 ± 1.1 kg/m3
- mass density (374.78 K, 17587 kPa): 413.86 ± 1.1 kg/m3
- mass density (374.78 K, 20094 kPa): 484.4 ± 1.3 kg/m3
- mass density (374.78 K, 20111 kPa): 484.48 ± 1.3 kg/m3
- mass density (374.78 K, 22615 kPa): 543.66 ± 1.3 kg/m3
- mass density (374.78 K, 22634 kPa): 543.72 ± 1.3 kg/m3
- mass density (374.78 K, 25138 kPa): 592.09 ± 1.2 kg/m3
- mass density (374.78 K, 25153 kPa): 592 ± 1.2 kg/m3
- mass density (374.78 K, 27657 kPa): 631.81 ± 1.2 kg/m3
- mass density (374.78 K, 27672 kPa): 631.68 ± 1.2 kg/m3
- mass density (374.78 K, 30176 kPa): 665.02 ± 1.2 kg/m3
- mass density (374.78 K, 30185 kPa): 664.78 ± 1.2 kg/m3
- mass density (374.78 K, 32689 kPa): 693.03 ± 1.2 kg/m3
- mass density (374.78 K, 32690 kPa): 693.42 ± 1.2 kg/m3
- mass density (374.78 K, 35184 kPa): 717.46 ± 1.2 kg/m3
- mass density (374.78 K, 35192 kPa): 717.92 ± 1.2 kg/m3
- mass density (400.5 K, 5077 kPa): 75.32 ± 0.12 kg/m3
- mass density (400.5 K, 5080.3 kPa): 74.8 ± 0.13 kg/m3
- mass density (400.5 K, 7594.6 kPa): 118.07 ± 0.2 kg/m3 and 118.35 ± 0.2 kg/m3
- mass density (400.5 K, 10099 kPa): 166.1 ± 0.33 kg/m3
- mass density (400.5 K, 10100 kPa): 165.54 ± 0.33 kg/m3
- mass density (400.5 K, 15048 kPa): 272.65 ± 0.65 kg/m3
- mass density (400.5 K, 15074 kPa): 273.42 ± 0.65 kg/m3
- mass density (400.5 K, 17570 kPa): 330.78 ± 0.98 kg/m3
- mass density (400.5 K, 17602 kPa): 331.7 ± 0.99 kg/m3
- mass density (400.5 K, 20096 kPa): 388.17 ± 1.2 kg/m3
- mass density (400.5 K, 20129 kPa): 389.15 ± 1.2 kg/m3
- mass density (400.5 K, 22617 kPa): 441.87 ± 1.4 kg/m3
- mass density (400.5 K, 22654 kPa): 442.82 ± 1.4 kg/m3
- mass density (400.5 K, 25139 kPa): 490.19 ± 1.6 kg/m3
- mass density (400.5 K, 25176 kPa): 491.09 ± 1.6 kg/m3
- mass density (400.5 K, 27660 kPa): 532.79 ± 1.4 kg/m3
- mass density (400.5 K, 27688 kPa): 533.55 ± 1.4 kg/m3
- mass density (400.5 K, 30177 kPa): 569.95 ± 1.4 kg/m3
- mass density (400.5 K, 30206 kPa): 570.64 ± 1.4 kg/m3
- mass density (400.5 K, 32686 kPa): 602.4 ± 1.4 kg/m3
- mass density (400.5 K, 32712 kPa): 602.99 ± 1.4 kg/m3
- mass density (400.5 K, 35192 kPa): 631.01 ± 1.4 kg/m3
- mass density (400.5 K, 35205 kPa): 631.44 ± 1.4 kg/m3
